ChEMBL document CHEMBL2046330, “Structure-based design of novel benzoxazinorifamycins with potent binding affinity to wild-type and rifampin-resistant mutant Mycobacterium tuberculosis RNA polymerases” (J Med Chem, 2012)
Converted amounts (≈) assume the structure as drawn.

What was measured:
[1] = Inhibition of Mycobacterium tuberculosis wild type RNA polymerase by rolling circle transcription assay in the presence of sigmaA factor
[2] = Inhibition of Mycobacterium tuberculosis wild type RNA polymerase by rolling circle transcription assay in the absence of sigmaA factor
[3] = Half life in human; format: ADME, organism-based; settings: in vivo
[4] = Metabolic stability in mouse microsomes assessed as compound remaining after 30 mins; format: ADME, Microsome; settings: read-out: Stability
PXR (NR1I2) [5] = biological target: T1, PXR (NR1I2) (Homo sapiens, UniProt O75469); test: Activation of PXR in human DPX2 cells at 100 uM after 24 hrs by luciferase reporter gene assay relative to control; format: cell-based; settings: read-out: FC
T1 sequence (O75469 whole entry): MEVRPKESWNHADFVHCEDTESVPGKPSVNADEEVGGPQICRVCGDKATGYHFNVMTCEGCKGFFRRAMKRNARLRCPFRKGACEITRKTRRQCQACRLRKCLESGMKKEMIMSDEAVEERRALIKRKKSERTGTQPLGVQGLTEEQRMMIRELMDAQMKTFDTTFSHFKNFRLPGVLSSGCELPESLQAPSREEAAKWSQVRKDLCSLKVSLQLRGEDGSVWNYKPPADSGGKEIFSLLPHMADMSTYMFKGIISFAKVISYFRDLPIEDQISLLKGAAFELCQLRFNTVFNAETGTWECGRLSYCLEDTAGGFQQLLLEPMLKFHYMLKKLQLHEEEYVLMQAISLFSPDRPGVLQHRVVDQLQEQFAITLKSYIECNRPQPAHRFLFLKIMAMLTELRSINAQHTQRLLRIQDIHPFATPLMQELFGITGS

[6] = Half life in human microsomes; format: ADME, Microsome
[7] = tested on: Mycobacterium tuberculosis; test: microbe, parasite or virus in culture; settings: H37Rv, 168 h
Description: Antitubercular activity against Mycobacterium tuberculosis H37Rv in aerobic conditions after 7 days by microplate-based alamar blue assay

[8] = Metabolic stability in human microsomes assessed as compound remaining after 30 mins; format: ADME, Microsome; settings: read-out: Stability
[9] = tested on: Mycobacterium tuberculosis; test: microbe, parasite or virus in culture; settings: H37Rv, 264 h
Description: Antitubercular activity against Mycobacterium tuberculosis H37Rv in anaerobic conditions after 11 days by luminescnece-based low-oxygen recovery assay

[10] = biological target: T2, Nuclear receptor subfamily 1 group I member 2 (Homo sapiens, UniProt O75469); test: Activation of PXR in human DPX2 cells at <100 uM after 24 hrs by luciferase reporter gene assay; format: cell-based; settings: dpx2, 24 h
T2 sequence (O75469 whole entry): T1 sequence (O75469 whole entry)

[11] = Cytotoxicity against human DPX2 cells expressing PXR assessed as decrease in cell viability at 100 uM after 24 hrs relative to control; format: ADME, cell-based; settings: dpx2, 24 h
[12] = Half life in mouse microsomes; format: ADME, Microsome
PXR (NR1I2) [13] = biological target: T1, PXR (NR1I2); test: Activation of PXR in human DPX2 cells at 6.25 uM after 24 hrs by luciferase reporter gene assay relative to control; format: cell-based; settings: read-out: FC
[14] = Cytotoxicity against human DPX2 cells expressing PXR assessed as decrease in cell viability at >6.25 uM after 24 hrs; format: ADME, cell-based; settings: dpx2, 24 h
[15] = Selectivity index, ratio of cytotoxicity against human DPX2 cells to IC50 for Mycobacterium wild type RNA polymerase; format: toxicity, cell-based; settings: read-out: Selectivity Index
[16] = Cmax in BALB/c mouse at 10 mg/kg, po administered as single dose; format: ADME, organism-based; parameters: dose 10 mg/kg, route oral; settings: in vivo
Blood [17] = test: Drug uptake in BALB/c mouse blood at 10 mg/kg, po administered as single dose; format: ADME, organism-based; parameters: dose 10 mg/kg, route oral; settings: in vivo, BLD = below limit of detection
[18] = Drug uptake in BALB/c mouse lung at 10mg/kg, po administered qd for 5 days; format: ADME, organism-based; settings: read-out: Drug uptake
[19] = Apparent plasma half life in BALB/c mouse at 10 mg/kg, po administered qd for 5 days; format: ADME, organism-based; parameters: dose 10 mg/kg, route oral; settings: read-out: t1/2(app) (converted)
Mus musculus = test: Ratio of Cmax in BALB/c mouse at 10 mg/kg, po administered qd for 5 days to Cmax in BALB/c mouse at 10 mg/kg, po administered as single dose; format: ADME, organism-based; settings: in vivo, 120 h
Blood [20] = test: Drug uptake in BALB/c mouse blood at 10 mg/kg, po administered qd for 5 days; format: ADME, organism-based; parameters: dose 10 mg/kg, route oral; settings: in vivo, 120 h
[21] = T>MIC in BALB/c mouse at 10 mg/kg, po administered qd for 5 days; format: functional
[22] = Tmax in BALB/c mouse at 10 mg/kg, po administered qd for 5 days; format: ADME, organism-based; parameters: dose 10 mg/kg, route oral; settings: in vivo
[23] = Tmax in BALB/c mouse at 10 mg/kg, po administered as single dose; format: ADME, organism-based; parameters: dose 10 mg/kg, route oral; settings: in vivo
[24] = Cmax in BALB/c mouse at 10 mg/kg, po administered qd for 5 days; format: ADME, organism-based; parameters: dose 10 mg/kg, route oral; settings: in vivo
PXR (NR1I2) [25] = biological target: T1, PXR (NR1I2); test: Activation of PXR in human DPX2 cells after 24 hrs by luciferase reporter gene assay relative to control; format: cell-based; settings: read-out: FC
[26] = biological target: T2, Nuclear receptor subfamily 1 group I member 2; test: Activation of PXR in human DPX2 cells after 24 hrs by luciferase reporter gene assay; format: cell-based
[27] = Cytotoxicity against human DPX2 cells expressing PXR assessed as decrease in cell viability at 25 uM after 24 hrs; format: ADME, cell-based; settings: dpx2, 24 h

SMILES: CO[C@H]1/C=C/O[C@@]2(C)Oc3c(C)c(O)c4c(=O)c(c5oc6cc(N7CCN(CC(C)C)CC7)cc(O)c6nc-5c4c3C2=O)NC(=O)/C(C)=C\C=C\[C@H](C)[C@H](O)[C@@H](C)[C@@H](O)[C@@H](C)[C@H](OC(C)=O)[C@@H]1C [RIFALAZIL]
- IC50 [1]: < 0.01 µM
- IC50 [2]: 0.0115 µM
- half-life [3]: 60 h
- remaining at 0.5 h [4]: 67%
- fold induction at 24 h, 100 µM (PXR (NR1I2) [5]): 2
- half-life [6]: 1.08 h
- MIC90 [7]: < 0.004 µM
- remaining at 0.5 h [8]: 73%
- MIC90 [9]: < 0.017 µM
- Activity [10]: Not Active
- fold change (FC) [11]: 2
- half-life [12]: 0.883 h

SMILES: O=[N+]([O-])c1cn2c(n1)OC[C@@H](OCc1ccc(OC(F)(F)F)cc1)C2 [PRETOMANID]
- MIC90 [9]: 2.53 µM (≈ 0.909 µg/mL)

SMILES: CO[C@H]1/C=C/O[C@@]2(C)Oc3c(C)c(O)c4c(=O)c(c5oc6cccc(OCCCCN7CCN(CCn8ccnc8)CC7)c6nc-5c4c3C2=O)NC(=O)/C(C)=C\C=C\[C@H](C)[C@H](O)[C@@H](C)[C@@H](O)[C@@H](C)[C@H](OC(C)=O)[C@@H]1C
- fold induction at 24 h, 6.25 µM (PXR (NR1I2) [13]): 3
- IC50 [1]: < 0.01 µM
- IC50 [2]: < 0.01 µM
- Activity [14]: Toxic
- selectivity ratio [15]: 1000
- MIC90 [7]: 0.08 µM (≈ 0.0828 µg/mL)
- MIC90 [9]: 0.35 µM (≈ 0.362 µg/mL)

SMILES: CCN(CC)CCOc1cccc2oc3c4c(=O)c5c(O)c(C)c6c(c5c-3nc12)C(=O)[C@@](C)(O/C=C/[C@H](OC)[C@@H](C)[C@@H](OC(C)=O)[C@H](C)[C@H](O)[C@H](C)[C@@H](O)[C@@H](C)/C=C/C=C(/C)C(=O)N4)O6
- fold induction at 24 h, 6.25 µM (PXR (NR1I2) [13]): 3
- IC50 [1]: < 0.01 µM
- IC50 [2]: < 0.01 µM
- Cmax [16]: 18.5 nM
- remaining at 0.5 h [4]: 86%
- half-life [6]: 0.9 h
- Activity [14]: Toxic
- selectivity ratio [15]: 1000
- Drug uptake (Blood [17]): BLD
- concentration at 120 h [18]: 400 nM
- half-life [19]: 1 h
- Ratio (Mus musculus): 100
- MIC90 [7]: 0.02 µM (≈ 0.018 µg/mL)
- remaining at 0.5 h [8]: 68%
- MIC90 [9]: 0.37 µM (≈ 0.333 µg/mL)
- half-life [12]: 2.35 h
- Drug uptake (Blood [20]): Active
- T>MIC [21]: 4 h
- Tmax [22]: 2 h
- Tmax [23]: 1 h
- Cmax [24]: 1740 nM

SMILES: CO[C@H]1/C=C/O[C@@]2(C)Oc3c(C)c(O)c4c(O)c(c(/C=N/N5CCN(C)CC5)c(O)c4c3C2=O)NC(=O)/C(C)=C\C=C\[C@H](C)[C@H](O)[C@@H](C)[C@@H](O)[C@@H](C)[C@H](OC(C)=O)[C@@H]1C [RIFAMPIN]
- MIC90 [7]: 0.13 µM (≈ 0.107 µg/mL)
- MIC90 [9]: 0.46 µM (≈ 0.379 µg/mL)

SMILES: COc1c(N2C[C@@H]3CCCN[C@@H]3C2)c(F)cc2c(=O)c(C(=O)O)cn(C3CC3)c12 [MOXIFLOXACIN]
- MIC90 [7]: 0.46 µM (≈ 0.185 µg/mL)

SMILES: CN[C@@H]1[C@H](O[C@H]2[C@H](O[C@H]3[C@H](O)[C@@H](O)[C@H](N=C(N)N)[C@@H](O)[C@@H]3N=C(N)N)O[C@@H](C)[C@]2(O)C=O)O[C@@H](CO)[C@H](O)[C@H]1O [STREPTOMYCIN]
- MIC90 [7]: 0.46 µM (≈ 0.268 µg/mL)

SMILES: CO[C@H]1/C=C/O[C@@]2(C)Oc3c(C)c(O)c4c(=O)c(c5oc6cccc(OCCCCN7CCN(C(=O)Cn8ccnc8)CC7)c6nc-5c4c3C2=O)NC(=O)/C(C)=C\C=C\[C@H](C)[C@H](O)[C@@H](C)[C@@H](O)[C@@H](C)[C@H](OC(C)=O)[C@@H]1C
- IC50 [1]: < 0.01 µM
- IC50 [2]: < 0.01 µM
- fold induction at 24 h (PXR (NR1I2) [25]): 5.9
- EC50 [26]: 5.5 µM
- MIC90 [7]: 0.07 µM (≈ 0.0734 µg/mL)
- MIC90 [9]: 0.4 µM (≈ 0.42 µg/mL)
- Activity [27]: Toxic

SMILES: NNC(=O)c1ccncc1 [ISONIAZID]
- MIC90 [7]: 0.24 µM (≈ 0.0329 µg/mL)
- MIC90 [9]: > 128 µM
